The source made the active and inactive calls.
Columns and labels:
[1] = EF1alpha-driven Renilla reporter with control 3'UTR suppression – Clone20-Shn3RL cells, dual-Glo, cherry-pick, set 2, counter-screen for Shn3 3'UTR targeting project, dose response (AID 720724); assay type: functional, cell-based; conditions: Dual-Go Shn3RL
BJ [2] = test: growth inhibition of engineered Ras-driven BJ cells – cell-based, alamar blue fluorescence, cherrypicked samples, dose response (AID 2631); assay type: functional; conditions: Homo sapiens;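 further: confirmatory dose-response assay in RAS-dependent BJ fibroblasts engineered with TERT, LT and ST, with cytotoxicity read by fluorescence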
BJ [3] = test: BJ-TERT fibroblast viability loss – cell-based, RAS-independent, luminescence, dose response (AID 1933); assay type: functional; conditions: Homo sapiens
[4] = non-specific 3'UTR reporter inhibition in Clone20-Shn3RL – cell-based, Renilla luciferase, cherry-picked, counter-screen for Shn3 inhibitor project, dose response (AID 624133); assay type: functional
BJ [5] = test: BJ-TERT-LT-ST fibroblast viability loss – cell-based, RAS-independent, luminescence, dose response (AID 1935); assay type: functional; conditions: Homo sapiens;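 further: BJ fibroblasts immortalized with TERT plus LT and ST oncogenes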
[6] = reduction of Shn3 3'UTR-driven luciferase in osteoblasts – cell-based, Clone20 osteoblasts, firefly luciferase, cherry-picked, dose response (AID 624132); assay type: functional;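 further: firefly luciferase luminescence from reporter carrying the Shn3 3'UTR in osteoblasts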
Protein RecA = molecular target: T1, Protein RecA (Mycobacterium tuberculosis, UniProt P9WHJ3); test: Fluorescence Cell-Free Homogeneous Dose Retest to Identify Inhibitors of RecA-Intein Splicing Activity. [Related pubchem assays (depositor defined):AID2097, AID2223, AID489010, AID492950]; assay type: functional
T1 sequence (P9WHJ3 whole entry): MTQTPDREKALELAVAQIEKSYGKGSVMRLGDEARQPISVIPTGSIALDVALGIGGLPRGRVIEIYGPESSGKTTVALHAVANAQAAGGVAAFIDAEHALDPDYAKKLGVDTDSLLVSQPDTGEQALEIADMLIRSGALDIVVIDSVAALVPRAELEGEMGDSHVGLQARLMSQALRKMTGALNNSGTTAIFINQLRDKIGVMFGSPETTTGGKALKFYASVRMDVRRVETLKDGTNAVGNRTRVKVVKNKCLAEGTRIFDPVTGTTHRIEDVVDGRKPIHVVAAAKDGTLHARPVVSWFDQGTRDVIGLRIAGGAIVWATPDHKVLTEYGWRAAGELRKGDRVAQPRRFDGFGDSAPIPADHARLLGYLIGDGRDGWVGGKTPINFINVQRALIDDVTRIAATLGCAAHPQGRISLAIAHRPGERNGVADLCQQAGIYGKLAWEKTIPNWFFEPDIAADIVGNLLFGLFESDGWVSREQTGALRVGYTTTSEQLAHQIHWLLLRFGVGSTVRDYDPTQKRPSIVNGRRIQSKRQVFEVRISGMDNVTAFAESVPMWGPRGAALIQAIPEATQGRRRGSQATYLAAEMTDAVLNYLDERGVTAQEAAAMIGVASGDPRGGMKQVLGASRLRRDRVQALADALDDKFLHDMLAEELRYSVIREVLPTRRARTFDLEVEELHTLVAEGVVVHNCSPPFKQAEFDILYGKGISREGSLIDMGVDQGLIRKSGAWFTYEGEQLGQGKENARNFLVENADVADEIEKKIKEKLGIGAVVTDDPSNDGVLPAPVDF

Beta Lactamase [7] = molecular target: T2, Beta Lactamase (Pseudomonas aeruginosa, UniProt Q932Y6); test: BLA reporter interference, concentration series – BLA reporter cells, FRET fluorescence, artefact control for NOD2-RIPK2 interaction inhibitor project, dose response (AID 651552); assay type: functional, cell-based
T2 sequence (Q932Y6 whole entry): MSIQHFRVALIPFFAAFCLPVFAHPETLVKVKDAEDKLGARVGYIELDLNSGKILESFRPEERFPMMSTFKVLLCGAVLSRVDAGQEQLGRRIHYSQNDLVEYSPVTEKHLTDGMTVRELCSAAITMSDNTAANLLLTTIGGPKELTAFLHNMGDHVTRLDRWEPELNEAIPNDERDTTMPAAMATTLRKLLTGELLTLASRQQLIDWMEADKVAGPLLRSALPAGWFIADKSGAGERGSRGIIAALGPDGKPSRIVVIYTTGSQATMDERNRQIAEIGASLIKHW

[8] = DRD fibroblast viability loss – cell-based, non-viral oncogenic, luminescence, dose response (AID 1934); assay type: functional; conditions: Homo sapiens
[9] = Luminescence Cell-Based Dose Confirmation HTS to Identify Activators of 5'UTR Stem-Loop Driven Alpha-Synuclein mRNA Translation in H4 Neuroglioblastoma Cells. [Related pubchem assays: 1829 (Project Summary), 1814 (Primary HTS)]; assay type: functional
[10] = Shn3 transcript knock-down in Clone20 cells – cell-based, qPCR, cherry-pick, dose response (AID 743415); assay type: functional
[11] = loss of viability in HepG2 cells – cell-based, CellTiter-Glo, cherry-picked, cytotoxicity control for Shn3 inhibitor project, dose response (AID 624134); assay type: functional
[12] = Shn3 3'UTR reporter signal decrease – cell-based, Clone20 osteoblasts, firefly luciferase, cherry-pick, set 2, Schnurri-3 inhibitor project, dose response (AID 720490); assay type: functional;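 further: actives lower the luminescence signal as inhibitors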
[13] = Luminescence Cell-Based Dose Response HTS to Identify Activators of Luciferase Translation or Activity in H4 […] Cells. [Related pubchem assays: 1829 (Project Summary), 1814 (Primary HTS)]; assay type: functional
BJ [14] = test: cells; assay type: functional, cell-based; conditions: Homo sapiens
[15] = Fluorescence-based cell-based high throughput dose response assay for inhibitors of the interaction of nucleotide-binding oligomerization domain containing 2 (NOD2) and the receptor-interacting serine-threonine kinase 2 (RIPK2).; assay type: functional; conditions: Homo sapiens
Beta Lactamase [16] = molecular target: T2, Beta Lactamase; test: BLA reporter interference, concentration series – BLA reporter cells, FRET fluorescence, artefact control for TLR9-MyD88 binding inhibitor project, dose response (AID 588341); assay type: cell-based;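 further: cell based assay in CHO-K1 cells stably expressing beta-lactamase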
CHO = CHO cell viability loss, potency – luminescence, cytotoxicity control for TLR9-MyD88 binding inhibitor project, dose response (AID 588339); assay type: functional, cell-based, hamster; conditions: Cricetulus griseus;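 further: CHO cells stably coexpressing TLR9 and MyD88 fusions from primary screen; compound exposure lasted 48 hours before viability readout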
[17] = HEK-293T viability loss after treatment – luminescence, T-cell screen hits, cytotoxicity control for TCR NF-kB inhibitor project, dose response (AID 489026); assay type: functional, cell-based;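 further: cells exposed to compound about 14 hours before the viability readout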
H4 = test: Luminescence Cell-Based Dose Response HTS to Identify Activators of 5'UTR Stem-Loop Driven Prion Protein mRNA Translation in H4 Neuroglioblastoma Cells. [Related pubchem assays: 1829 (Project Summary), 1814 (Primary HTS)]; assay type: functional; conditions: Homo sapiens
[18] = molecular target: T3, Replicative DNA helicase DnaB (Mycobacterium tuberculosis, UniProt P9WMR3); test: DnaB intein splicing inhibitors, dose response, biochemical, cell-free fluorescence (AID 449749); assay type: functional
T3 sequence (P9WMR3 whole entry): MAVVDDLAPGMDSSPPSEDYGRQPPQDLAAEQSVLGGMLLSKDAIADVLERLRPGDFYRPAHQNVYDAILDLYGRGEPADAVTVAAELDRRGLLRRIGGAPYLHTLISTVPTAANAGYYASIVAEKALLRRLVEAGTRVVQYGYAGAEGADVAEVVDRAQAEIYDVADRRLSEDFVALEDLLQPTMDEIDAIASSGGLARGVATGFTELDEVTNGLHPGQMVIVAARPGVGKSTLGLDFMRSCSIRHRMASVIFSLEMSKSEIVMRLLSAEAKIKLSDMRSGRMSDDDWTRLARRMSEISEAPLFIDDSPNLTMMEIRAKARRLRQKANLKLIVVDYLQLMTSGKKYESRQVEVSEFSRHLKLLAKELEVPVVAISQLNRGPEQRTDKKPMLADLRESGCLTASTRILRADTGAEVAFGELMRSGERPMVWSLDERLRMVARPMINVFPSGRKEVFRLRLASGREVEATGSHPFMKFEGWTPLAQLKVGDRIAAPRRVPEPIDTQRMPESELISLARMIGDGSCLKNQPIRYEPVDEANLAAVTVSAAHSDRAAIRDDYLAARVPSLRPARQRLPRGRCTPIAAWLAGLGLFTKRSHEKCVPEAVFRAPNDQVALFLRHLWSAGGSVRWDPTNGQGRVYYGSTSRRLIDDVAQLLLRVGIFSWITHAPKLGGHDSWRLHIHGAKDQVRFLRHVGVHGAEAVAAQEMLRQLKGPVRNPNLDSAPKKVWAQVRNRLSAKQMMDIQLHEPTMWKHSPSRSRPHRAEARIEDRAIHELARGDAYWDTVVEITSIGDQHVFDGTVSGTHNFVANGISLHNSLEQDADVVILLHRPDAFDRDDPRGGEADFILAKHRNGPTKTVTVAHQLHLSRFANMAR

**Q.** Which AC50 [1] does the source give for `CCOC(=O)C1CCN(S(=O)(=O)c2c(Cl)ccc3nonc23)CC1` here?
**A.** 1.77 µM (active)

**Q.** And the EC50 (BJ [2])?
**A.** 0.318 µM (active)

**Q.** What about the EC50 (BJ [3]) of the same molecule?
**A.** 2.73 µM (inconclusive)

**Q.** And the AC50 [4]?
**A.** 4.78 µM (active)

**Q.** And the EC50 (BJ [5])?
**A.** 2.84 µM (inconclusive)

**Q.** What about the AC50 [6] of the same molecule?
**A.** 0.919 µM (active)

**Q.** And the EC50 (Protein RecA)?
**A.** 14.4 µM (active)

**Q.** And the IC50 (Beta Lactamase [7])?
**A.** 26.8 µM (inactive)

**Q.** And the EC50 [8]?
**A.** 2.75 µM (active)

**Q.** What about the EC50 [9] of the same molecule?
**A.** > 120 µM (not active)

**Q.** And the AC50 [10]?
**A.** 3.36 µM (active)

**Q.** What about the AC50 [11] of the same molecule?
**A.** 12.2 µM (active)

**Q.** And the AC50 [12]?
**A.** 1.97 µM (active)

**Q.** What about the EC50 [13] of the same molecule?
**A.** > 120 µM (not active)

**Q.** What about the EC50 (BJ [14]) of the same molecule?
**A.** 6.08 µM (inconclusive)

**Q.** What about the IC50 [15] of the same molecule?
**A.** 1.12 µM (active)

**Q.** And the IC50 (Beta Lactamase [16])?
**A.** 21.2 µM (inactive)

**Q.** What about the IC50 (CHO) of the same molecule?
**A.** 2.42 µM (active)

**Q.** What about the IC50 [17] of the same molecule?
**A.** > 80 µM (inactive)

**Q.** And the EC50 (H4)?
**A.** > 120 µM (not active)

**Q.** And the AC50 [18]?
**A.** 5.07 µM (active)
